ChEMBL document CHEMBL1144347, “Endothelin-converting enzyme-1 inhibition and growth of human glioblastoma cells” (J Med Chem, 2005)

How the values were obtained:
[1] = biological target: T1, Endothelin-converting enzyme 1 (Homo sapiens, UniProt P42892); test: Inhibitory concentration against human ECE-1 by RIA
T1 sequence (P42892 whole entry): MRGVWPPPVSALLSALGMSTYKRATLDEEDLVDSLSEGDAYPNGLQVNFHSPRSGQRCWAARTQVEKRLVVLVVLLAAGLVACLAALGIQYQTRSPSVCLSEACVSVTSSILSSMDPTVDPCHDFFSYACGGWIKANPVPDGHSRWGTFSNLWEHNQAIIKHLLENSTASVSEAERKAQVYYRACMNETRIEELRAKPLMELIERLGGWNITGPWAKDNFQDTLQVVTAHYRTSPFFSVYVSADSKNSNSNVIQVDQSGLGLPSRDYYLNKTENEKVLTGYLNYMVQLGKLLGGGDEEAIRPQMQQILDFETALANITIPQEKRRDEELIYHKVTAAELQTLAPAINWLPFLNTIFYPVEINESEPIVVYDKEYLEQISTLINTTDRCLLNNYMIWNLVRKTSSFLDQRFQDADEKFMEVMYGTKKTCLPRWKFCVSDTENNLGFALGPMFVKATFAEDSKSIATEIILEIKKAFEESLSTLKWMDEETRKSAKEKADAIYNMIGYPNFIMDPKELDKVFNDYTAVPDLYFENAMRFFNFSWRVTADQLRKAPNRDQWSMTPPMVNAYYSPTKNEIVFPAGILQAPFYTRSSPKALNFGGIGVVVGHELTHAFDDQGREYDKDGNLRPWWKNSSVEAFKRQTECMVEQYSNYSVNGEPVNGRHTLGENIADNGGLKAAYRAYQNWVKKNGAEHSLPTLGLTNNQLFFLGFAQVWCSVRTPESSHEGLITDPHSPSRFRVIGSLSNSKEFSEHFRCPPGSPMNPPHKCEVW

[2] = biological target: Angiotensin-converting enzyme (Homo sapiens, UniProt P12821); test: Inhibitory concentration against human angiotensin I converting enzyme
[3] = biological target: T1, Endothelin-converting enzyme 1; test: Inhibitory concentration against human ECE-1 expressed in MDCK cells; format: cell-based
[4] = biological target: Neprilysin (Homo sapiens, UniProt P08473); test: Inhibitory concentration against Neprilysin
[5] = cells; details: Homo sapiens, Glioblastoma
Description: (§1) Inhibitory concentration against DNA synthesis in LNZ308 glioblastoma cells

[6] = cells; details: Homo sapiens, Glioblastoma; remark: listed apart in the source
Description: Inhibitory concentration against DNA synthesis in LN18 glioblastoma cells

[7] = cells; details: Homo sapiens, Glioblastoma; remark: listed apart in the source
Description: Inhibitory concentration againstDNA synthesis in LN18 glioblastoma cells

[8] = cells; details: Homo sapiens, Glioblastoma; remark: listed apart in the source
Description: as §1

[9] = Inhibitory concentration of the compound was determined against DNA synthesis in LN18 glioblastoma cells; format: functional, cell-based; details: Homo sapiens

Neprilysin, sequence (P08473 whole entry): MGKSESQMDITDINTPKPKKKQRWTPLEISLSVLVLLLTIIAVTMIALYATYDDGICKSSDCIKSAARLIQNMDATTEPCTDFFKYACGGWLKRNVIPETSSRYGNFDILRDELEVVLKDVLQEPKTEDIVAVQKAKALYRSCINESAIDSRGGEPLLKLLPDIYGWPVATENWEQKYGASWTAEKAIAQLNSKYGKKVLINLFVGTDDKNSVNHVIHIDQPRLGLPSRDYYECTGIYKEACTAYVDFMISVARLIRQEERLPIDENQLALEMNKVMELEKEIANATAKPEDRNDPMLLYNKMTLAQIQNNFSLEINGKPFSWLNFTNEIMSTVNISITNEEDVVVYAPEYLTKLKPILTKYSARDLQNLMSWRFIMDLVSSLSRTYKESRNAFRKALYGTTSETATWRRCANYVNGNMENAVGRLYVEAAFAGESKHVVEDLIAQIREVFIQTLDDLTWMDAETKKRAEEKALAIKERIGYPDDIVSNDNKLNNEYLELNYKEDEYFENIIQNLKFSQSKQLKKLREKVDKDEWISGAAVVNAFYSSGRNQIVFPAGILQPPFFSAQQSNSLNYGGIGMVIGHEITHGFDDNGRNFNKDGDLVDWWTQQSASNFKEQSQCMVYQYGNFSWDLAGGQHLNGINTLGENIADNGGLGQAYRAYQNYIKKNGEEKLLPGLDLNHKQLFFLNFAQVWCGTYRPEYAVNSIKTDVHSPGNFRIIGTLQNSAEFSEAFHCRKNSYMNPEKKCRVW
Angiotensin-converting enzyme, sequence (P12821 whole entry): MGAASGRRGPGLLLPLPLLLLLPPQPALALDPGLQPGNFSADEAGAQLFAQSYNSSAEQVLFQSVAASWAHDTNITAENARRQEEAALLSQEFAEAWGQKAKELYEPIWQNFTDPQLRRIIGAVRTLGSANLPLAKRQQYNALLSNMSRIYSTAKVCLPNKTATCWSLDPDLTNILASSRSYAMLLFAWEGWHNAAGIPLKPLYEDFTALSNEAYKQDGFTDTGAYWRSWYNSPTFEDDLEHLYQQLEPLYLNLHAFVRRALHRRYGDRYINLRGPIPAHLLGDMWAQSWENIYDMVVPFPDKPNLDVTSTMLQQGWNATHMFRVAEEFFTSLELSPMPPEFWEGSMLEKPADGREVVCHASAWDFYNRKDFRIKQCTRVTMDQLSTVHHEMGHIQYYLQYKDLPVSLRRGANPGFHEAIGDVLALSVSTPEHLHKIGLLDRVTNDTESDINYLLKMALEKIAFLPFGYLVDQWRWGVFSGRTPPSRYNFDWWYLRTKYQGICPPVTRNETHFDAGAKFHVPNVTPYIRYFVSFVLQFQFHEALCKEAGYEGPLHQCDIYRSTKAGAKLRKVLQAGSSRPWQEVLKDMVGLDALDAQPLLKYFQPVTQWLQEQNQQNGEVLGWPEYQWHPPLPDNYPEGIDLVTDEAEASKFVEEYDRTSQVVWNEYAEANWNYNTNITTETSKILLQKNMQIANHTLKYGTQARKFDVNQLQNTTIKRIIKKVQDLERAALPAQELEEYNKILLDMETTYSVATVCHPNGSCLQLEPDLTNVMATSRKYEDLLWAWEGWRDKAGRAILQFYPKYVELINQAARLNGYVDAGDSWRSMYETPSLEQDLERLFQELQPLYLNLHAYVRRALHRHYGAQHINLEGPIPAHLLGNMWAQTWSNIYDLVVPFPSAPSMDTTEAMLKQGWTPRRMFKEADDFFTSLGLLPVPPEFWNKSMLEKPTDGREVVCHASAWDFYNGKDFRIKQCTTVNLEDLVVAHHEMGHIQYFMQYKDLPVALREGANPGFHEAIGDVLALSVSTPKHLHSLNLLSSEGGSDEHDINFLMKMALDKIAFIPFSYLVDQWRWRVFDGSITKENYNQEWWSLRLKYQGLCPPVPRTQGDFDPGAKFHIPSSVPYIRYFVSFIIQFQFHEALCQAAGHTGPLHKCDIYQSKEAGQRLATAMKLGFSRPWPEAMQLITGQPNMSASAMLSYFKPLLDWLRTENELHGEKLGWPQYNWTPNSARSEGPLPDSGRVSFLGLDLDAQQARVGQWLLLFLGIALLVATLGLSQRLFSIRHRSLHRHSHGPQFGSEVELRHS

| Structure (SMILES) | IC50 [1] [µM] | IC50 [2] [µM] | IC50 [3] [µM] | IC50 [4] [µM] | IC50 [5] [µM] | IC50 [6] [µM] | IC50 [7] [µM] | IC50 [8] [µM] | IC50 [9] [µM] |
| --- | --- | --- | --- | --- | --- | --- | --- | --- | --- |
| O=P(O)(O)C(Cc1ccc2ccccc2c1)N[C@@H](Cc1ccc(-c2ccccc2)cc1)c1nnn[nH]1 (some centres undefined) [CGS-314447] | 0.02 |  |  |  |  |  |  |  |  |
| COC(=O)c1ccccc1OC(=O)N1CC(S)CC1COCc1cc(F)c(F)cc1F (centres undefined) | 0.0012 | 13.4 | 0.067 | > 100 |  |  |  |  |  |
| COC(=O)c1ccccc1NC(=O)CN(C)C(=O)C1C[C@@H](S)CN1S(=O)(=O)c1ccc2ccccc2c1 (some centres undefined) | 0.0808 | 36.6 | 10.9 | 81.9 | 16 | 12 |  |  |  |
| CC(=O)S[C@@H]1C[C@@H](COCc2cc(F)c(F)cc2F)N(C(=O)Oc2cccc3c2OCCO3)C1 | 0.0069 | > 100 | 0.0765 | > 100 |  |  | 14 | 16 |  |
| CCCc1cnc(N2C[C@H](S)C[C@H]2CNCc2cc(F)ccc2F)nc1 | 0.0104 | 31.5 | 0.0729 | > 100 |  |  |  | 40 | 19 |
| Cc1ccc(S(=O)(=O)NN(C)C(=O)C2C[C@@H](S)CN2S(=O)(=O)c2ccc3ccccc3c2)cc1 (some centres undefined) | 0.0613 | 14.6 | 2.53 | 39.2 |  |  |  |  |  |
| O=C(S[C@@H]1C[C@@H](COCc2cc(F)c(F)cc2F)N(C(=O)Oc2cccc3c2OCCO3)C1)c1ccccc1 | 0.0497 | > 100 | 0.48 | > 100 | 20 | 18 |  |  |  |
| CC(C)OC(=O)N1C[C@H](S)C[C@H]1CNCc1cc(F)ccc1F | 0.016 | > 100 | 1.09 | > 100 | 50 | 27 |  |  |  |
